US20120142109A1, “METHOD FOR PRODUCING T CELL POPULATION UNDER PRESENCE OF RETINOIC ACID” (priority 2009, published 2012)

What was measured:
Type in all cases: cell-based, human
[1] = test system: CD8 single positive and CD4 single positive cells; test: Proportion of ZsGreen positive cells by flow cytometry; settings: Example 3, FIG. 9; gene transfer using virus-bound (fibronectin fragment) plate; 10 nM retinoic acid; 7th day
Protocol: A gene transfer operation was carried out as follows. […] The plate was cultured at 37° C. for 4 hours in a CO2 incubator. The cells after culturing were suspended at 0.1×10^6 cells/mL in a GT-T503 medium containing 1% autologous plasma, 720 IU/mL IL-2, 0.2% HSA, 2.5 μg/mL Fungizone and 10 nM retinoic acid. The resulting suspension was seeded on a 12-well plate, and cultured at 37° C. for 3 days. At the same time, a gene transfer operation and cell culture after gene transfer were similarly carried out using a cell suspension not containing retinoic acid as a control.
Regarding gene transfer using a virus-bound plate for gene transfer, the cell growth rate was measured on the 4th and 7th days, and cell surface markers, the proportion of ZsGreen positive cells and the copy number of a transferred gene were measured on the 7th day.
After initiation of stimulation of the PBMC, the cells on the 7th day in the case of gene transfer using the virus-bound plate for gene transfer, and the cells on the 6th day in the case of gene transfer by a polybrene method were reacted with a PE-Cy7-labeled anti-human CD4 antibody or an APC-Cy7-labeled anti-human CD8 antibody (manufactured by Becton Dickinson) at 4° C. for 20 minutes, washed and, then subjected to flow cytometry analysis using FACScant (manufactured by Becton Dickinson).

[2] = test system: T2A24 cell pulsed with MAGE-A4; test: Specific cytotoxic activity of gene-transferred cells, Calcein release
Protocol: Analysis of cytotoxicity of the gene-transferred cell on a MAGE-A4-derived peptide p143 was carried out. […] The suspension was cultured at 37° C. for 1 hour. The cells were washed with a medium not containing Calcein-AM, and mixed with a 10-fold amount of K562 cells (ATCC CCL-243) to prepare Calcein-labeled target cells. The K562 cells were used in order to exclude nonspecific cytotoxic activity due to NK cells commingling with responder cells. The cells on the 10th day after initiation of culture as effector cells were stepwisely diluted with a RPMI 1640 medium containing 10% FBS so as to be 1×10^5 to 1×10^6 cells/mL. Then, 100 μL/well of the dilution was dispended into each well of a 96-well cell culture plate. The Calcein-labeled target cells were adjusted to 1×10^5/mL and added to the wells at 100 μL/well. […] From the each well, 100 μL of the culture supernatant was removed, and the amount of Calcein released into the culture supernatant was measured with a fluorescent plate reader (485 nm/538 nm). “Specific cytotoxic activity (%)” was calculated according to the following mathematical formula 1.
Specific cytotoxic activity(%)=[{(measured value of each well)−(minimum released amount)}/{(maximum released amount)−(minimum released amount)}]×100 [Mathematical formula 1] […]

gene-transferred cell = test: Provirus copy number of the transferred gene; settings: Example 3, FIG. 11; ZsGreen gene, virus-bound plate; 10 nM retinoic acid; 7th day
Protocol: The provirus copy number of the transferred gene in the gene-transferred cell was measured with Provirus Copy Number Detection Primer Set. Human (manufactured by TAKARA BIO INC.). In FIG. 6, the ordinate axis indicates the copy number of the transferred gene in a gene-transferred cell. As a result, the copy number was increased by a combination of stimulation by an anti-CD3 antibody alone or fibronectin fragment/anti-CD3 antibody stimulation with addition of retinoic acid, and the increase of the copy number correlated with increase in gene transfer efficiency.
The results of measurement of the copy number of the transferred gene in the gene-transferred cell into which the gene was transferred using the virus-bound plate for gene transfer are shown in FIG. 11. In FIG. 11, the ordinate axis indicates the copy number of the transferred gene in the gene-transferred cell. As a result, the copy number under the combination condition of stimulation by an anti-CD3 antibody alone or fibronectin fragment/anti-CD3 antibody stimulation with addition of retinoic acid was about 2 times the copy number under the condition of no addition of retinoic acid. The copy number correlated with gene transfer efficiency.
The provirus copy number of the transferred gene in the cultured cells was measured using Provirus Copy Number Detection Primer Set. Human (manufactured by TAKARA BIO INC.). […]

PBMC = test: Cell growth rate relative to cell number at initiation of culture; settings: Example 2, FIG. 2; fibronectin fragment/anti-CD3 antibody stimulation compared with anti-CD3 antibody alone, regardless of presence or absence of retinoic acid
Protocol: A PBMC prepared from a healthy person from whom informed consent had been obtained was suspended at 0.18×10^6 cells/mL in a GT-T503 medium containing 1% autologous plasma, 720 IU/mL IL-2, 0.2% HSA, 2.5 μg/mL Fungizone and 10 nM retinoic acid. The suspension was added to the fibronectin fragment/anti-CD3 antibody-adherent plate or the anti-CD3 antibody-adherent plate at 2.65 mL/well. As controls, a cell suspension not containing retinoic acid was added to the plates. Each plate was cultured at 37° C. for 4 days in a CO2 incubator.
A gene transfer operation was carried out as follows. The PBMC which had been stimulated with an anti-CD3 antibody alone or a fibronectin fragment/an anti-CD3 antibody for 4 days was added to the virus-bound plate at 0.8×10^6 cells/2.0 mL/well. This plate was cultured at 37° C. overnight in a CO2 incubator. […]
On the 7th day after initiation of stimulation of the PBMC, the cell was seeded at 0.1×10^6 cells/mL, and cultured until the 10th day. The cell growth rate was measured on the 4th, 5th, 7th and 10th days. On the 4th day, cell surface markers before the cell was transferred to the virus-bound plate were measured. On the 10th day, cell surface markers, expression of a transferred TCR and the copy number of a transferred gene were measured. […]

Row | Compound | increase of proportion of ZsGreen positive cells as compared with no addition of retinoic acid [1] | cytotoxic activity on the specific target cells ([2]; Example 4, FIG. 15, retinoic acid stimulation group vs absence, cells on 10th day, each E/T ratio) | cytotoxic activity on the specific target cells ([2]; Example 5, FIG. 22, RR, OR and R- groups vs O-, E/T 1:1, cells on 11th day) | copy number of the transferred gene relative to no addition of retinoic acid (gene-transferred cell) | cell growth rate (PBMC)
1 | CC1=C(/C=C/C(C)=C/C=C/C(C)=C/C(=O)O)C(C)(C)CCC1 [retinoic acid] | 1.5 fold | high | higher | about 2 times | 
2 | fibronectin fragment: recombinant fibronectin fragment CH-296, commercially available as RetroNectin (TAKARA BIO INC.) |  |  |  |  | higher
